# Laboratory results: patent US5994629A, “Positive selection” (priority 1991, dated 1999)
# Counter-ions that a name gives are not always drawn. Like-named read-outs stand apart in the source and are kept apart here.
# How the values were obtained:
# [1] = system: plant material transgenic for the mannose 6-phosphate isomerase gene; test: Selection on mannose together with phloridzin; format: cell-based; details: 0.5 g/l phloridzin
# Description: The transformed plant material is transgenic for the mannose 6-phosphate isomerase gene. After 21 days the selected shoots are harvested. […] Example 29 is repeated except that MOG is substituted by phloridzin. […] This is an example of how cross feeding and the production of escapers can be minimized by the addition of a carbohydrate transport inhibitor.
# [2] = system: leaf discs of tobacco without (GUS-) introduced β-glucuronidase genes; format: cell-based, Nicotiana tabacum 'Wisconsin 38'; details: test compounds at several concentrations up to 250 μM in MSO
# [3] = target: β-glucuronidase from E. coli (Escherichia coli, UniProt P05804); test: Hydrolysis by β-glucuronidase (GUS), HPLC/TLC; format: biochemical
# Chain of β-glucuronidase from E. coli (P05804 whole entry, looked up): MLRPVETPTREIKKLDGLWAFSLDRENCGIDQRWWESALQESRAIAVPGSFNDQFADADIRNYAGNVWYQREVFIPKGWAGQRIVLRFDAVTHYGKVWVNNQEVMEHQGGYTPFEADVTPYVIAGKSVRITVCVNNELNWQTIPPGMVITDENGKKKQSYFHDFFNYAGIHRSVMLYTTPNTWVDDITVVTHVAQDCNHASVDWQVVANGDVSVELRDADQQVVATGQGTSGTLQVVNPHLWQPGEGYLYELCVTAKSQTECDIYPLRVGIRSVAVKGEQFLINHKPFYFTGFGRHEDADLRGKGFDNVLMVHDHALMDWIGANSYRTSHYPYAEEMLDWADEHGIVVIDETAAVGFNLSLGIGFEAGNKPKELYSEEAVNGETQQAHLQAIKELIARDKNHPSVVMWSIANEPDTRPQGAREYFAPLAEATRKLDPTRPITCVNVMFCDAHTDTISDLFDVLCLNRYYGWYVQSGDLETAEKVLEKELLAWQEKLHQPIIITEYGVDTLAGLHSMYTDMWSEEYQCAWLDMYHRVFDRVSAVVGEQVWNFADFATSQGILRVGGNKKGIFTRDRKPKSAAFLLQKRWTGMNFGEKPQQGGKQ
# Method: […] […] This confirms the identity of the product as a conjugate of BA and β-D-glucuronic acid.
# […] The presence of hydrolysis products is then determined using HPLC and TLC.
# [4] = system: leaf discs of tobacco with (GUS+) introduced β-glucuronidase genes; format: cell-based, Nicotiana tabacum 'Wisconsin 38'; details: test compounds at several concentrations up to 250 μM in MSO
# [5] = system: explants transgenic for the mannose 6-phosphate isomerase gene; test: Shoot regeneration on mannose, sucrose and methyl-3-O-glucose, Man-6-P-isomerase; format: cell-based; details: Man-6-P-isomerase
# explants = test: Inhibition of the toxicity of mannose by methyl-3-O-glucose; format: cell-based
# Description: Example 25 is repeated except that the selection/regeneration substrate is supplemented with methyl 3-0-glucose (MOG) at the concentrations indicated in Table 25. The percentage of live explants is registered after 8 weeks.
# Wild type explants = test: Shoot regeneration on mannose, sucrose and methyl-3-O-glucose, wild type; format: cell-based; details: Wild type
# [6] = system: plant material transgenic for the mannose 6-phosphate isomerase gene; test: Effect of methyl-3-O-glucose on selection of transgenic shoots on mannose; format: cell-based; details: mannose 15 g/l, no sucrose
# Description: The transformed plant material is transgenic for the mannose 6-phosphate isomerase gene. After 21 days the selected shoots are harvested.
# potato stem segments = test: Carbohydrate sources, potato stem segments, 9 weeks; format: cell-based; details: 5 g/l, 9 weeks; for activity at 5000 µg/mL: Solanum tuberosum
# Description: Similar results are observed with potato stem segments after 9 weeks of culturing.
# [7] = mannose 5.0 g/l, first '+ Sucrose' column
# [8] = mannose 5.0 g/l, second '+ Sucrose' column
# [9] = mannose 7.5 g/l, first '+ Sucrose' column
# [10] = mannose 7.5 g/l, second '+ Sucrose' column
# [11] = mannose 10.0 g/l, first '+ Sucrose' column
# [12] = mannose 10.0 g/l, second '+ Sucrose' column
# [13] = mannose 12.5 g/l, first '+ Sucrose' column
# [14] = mannose 15.0 g/l, first '+ Sucrose' column
# [15] = MOG 2.5, mannose 0 g/l, sucrose 10 g/l
# [16] = MOG 2.5, mannose 5 g/l, sucrose 0 g/l
# [17] = MOG 2.5, mannose 5 g/l, sucrose 10 g/l
# [18] = MOG 2.5, mannose 10 g/l, sucrose 0 g/l
# [19] = MOG 2.5, mannose 10 g/l, sucrose 10 g/l
# [20] = MOG 2.5, mannose 20 g/l, sucrose 0 g/l
# [21] = MOG 2.5, mannose 20 g/l, sucrose 10 g/l
# [22] = MOG 5.0, mannose 0 g/l, sucrose 0 g/l
# [23] = MOG 5.0, mannose 0 g/l, sucrose 10 g/l
# [24] = MOG 5.0, mannose 5 g/l, sucrose 0 g/l
# [25] = MOG 5.0, mannose 5 g/l, sucrose 10 g/l
# [26] = MOG 5.0, mannose 10 g/l, sucrose 0 g/l
# [27] = MOG 5.0, mannose 10 g/l, sucrose 10 g/l
# [28] = MOG 5.0, mannose 20 g/l, sucrose 0 g/l
# [29] = MOG 5.0, mannose 20 g/l, sucrose 10 g/l
smiles,measurement,setting,value
"O=C(CCc1ccc(O)cc1)c1c(O)cc(O)cc1O[C@@H]1O[C@H](CO)[C@@H](O)[C@H](O)[C@H]1O [Phloridzin, phloridzin]",GUS+ Shoots/Expl.,[1]; [7],1.2
same,GUS+ Shoots/Sel. Shoots,[1]; [7],94.0%
same,GUS+ Shoots/Expl.,[1]; [8],0.08
same,GUS+ Shoots/Sel. Shoots,[1]; [8],100.0%
same,GUS+ Shoots/Expl.,[1]; [9],0.5
same,GUS+ Shoots/Sel. Shoots,[1]; [9],88.0%
same,GUS+ Shoots/Expl.,[1]; [10],0.5
same,GUS+ Shoots/Sel. Shoots,[1]; [10],78.5%
same,GUS+ Shoots/Expl.,[1]; [11],0.5
same,GUS+ Shoots/Sel. Shoots,[1]; [11],100.0%
same,GUS+ Shoots/Expl.,[1]; [12],0.5
same,GUS+ Shoots/Sel. Shoots,[1]; [12],95%
same,GUS+ Shoots/Expl.,[1]; [13],0.03
same,GUS+ Shoots/Sel. Shoots,[1]; [13],100%
same,GUS+ Shoots/Expl.,"[1]; mannose 12.5 g/l, second '+ Sucrose' column",0.0
same,GUS+ Shoots/Expl.,[1]; [14],0.03
same,GUS+ Shoots/Sel. Shoots,[1]; [14],100%
same,GUS+ Shoots/Expl.,"[1]; mannose 15.0 g/l, second '+ Sucrose' column",0.0
"C/C(=C\CNc1ncnc2[nH]cnc12)CO[C@@H]1O[C@H](C(=O)O)[C@@H](O)[C@H](O)[C@H]1O [ZOGN sodium salt, O-β-D-glucopyranuronosylzeatin, sodium salt]","Shoot formation, GUS-",[2],"+ (""+"" means shoot formation at concentrations below 250 μM)"
same,"Hydrolysis by β-glucuronidase (GUS), result in words","[3]; 50 mM sodium phosphate buffer pH 7.0, 37° C., HPLC/TLC",virtually complete conversion to trans zeatin
same,"Shoot formation, GUS+",[4],"+ (""+"" means shoot formation at concentrations below 250 μM)"
C/C(=C\CNc1ncnc2[nH]cnc12)CO [Zeatin],"Shoot formation, GUS-",[2],"+ (""+"" means shoot formation at concentrations below 250 μM)"
same,"Shoot formation, GUS+",[4],"+ (""+"" means shoot formation at concentrations below 250 μM)"
"CC(C)=CCNc1ncnc2[nH]c(S[C@@H]3O[C@H](C(=O)O)[C@@H](O)[C@H](O)[C@H]3O)nc12 [IP8SGN sodium salt, 6-(3-methyl-but-2-enylamino)purine-8-yl-1-thio-β-D-glucopyranuronic acid, sodium salt]","Shoot formation, GUS-",[2],"+ (""+"" means shoot formation at concentrations below 250 μM)"
same,conversion to the aglycone by GUS,"[3]; 1 mg/ml, 2500 units GUS, 24 hours, 37° C., TLC",> 95%
same,"Shoot formation, GUS+",[4],"+ (""+"" means shoot formation at concentrations below 250 μM)"
"CO[C@H]1[C@H](O)[C@@H](CO)OC(O)[C@@H]1O (some centres unmarked) [MOG, methyl 3-0-glucose]",regenerated shoots as a percentage of shoots on substrates without mannose and methyl-3-0-glucose,"[5]; MOG 2.5, mannose 0 g/l, sucrose 0 g/l",0
same,regenerated shoots as a percentage of shoots on substrates without mannose and methyl-3-0-glucose,[5]; [15],0
same,regenerated shoots as a percentage of shoots on substrates without mannose and methyl-3-0-glucose,[5]; [16],7
same,regenerated shoots as a percentage of shoots on substrates without mannose and methyl-3-0-glucose,[5]; [17],64
same,regenerated shoots as a percentage of shoots on substrates without mannose and methyl-3-0-glucose,[5]; [18],64
same,regenerated shoots as a percentage of shoots on substrates without mannose and methyl-3-0-glucose,[5]; [19],86
same,regenerated shoots as a percentage of shoots on substrates without mannose and methyl-3-0-glucose,[5]; [20],107
same,regenerated shoots as a percentage of shoots on substrates without mannose and methyl-3-0-glucose,[5]; [21],200
same,regenerated shoots as a percentage of shoots on substrates without mannose and methyl-3-0-glucose,[5]; [22],0
same,regenerated shoots as a percentage of shoots on substrates without mannose and methyl-3-0-glucose,[5]; [23],0
same,regenerated shoots as a percentage of shoots on substrates without mannose and methyl-3-0-glucose,[5]; [24],0
same,regenerated shoots as a percentage of shoots on substrates without mannose and methyl-3-0-glucose,[5]; [25],64
same,regenerated shoots as a percentage of shoots on substrates without mannose and methyl-3-0-glucose,[5]; [26],28
same,regenerated shoots as a percentage of shoots on substrates without mannose and methyl-3-0-glucose,[5]; [27],36
same,regenerated shoots as a percentage of shoots on substrates without mannose and methyl-3-0-glucose,[5]; [28],128
same,regenerated shoots as a percentage of shoots on substrates without mannose and methyl-3-0-glucose,[5]; [29],86
same,percentage of live explants,"explants; MOG 5 g/l, mannose 0 g/l, sucrose 0 g/l",13
same,percentage of live explants,"explants; MOG 5 g/l, mannose 0 g/l, sucrose 10 g/l",100
same,percentage of live explants,"explants; MOG 5 g/l, mannose 5 g/l, sucrose 0 g/l",54
same,percentage of live explants,"explants; MOG 5 g/l, mannose 5 g/l, sucrose 10 g/l",100
same,percentage of live explants,"explants; MOG 5 g/l, mannose 10 g/l, sucrose 0 g/l",0
same,percentage of live explants,"explants; MOG 5 g/l, mannose 10 g/l, sucrose 10 g/l",5
same,percentage of live explants,"explants; MOG 10 g/l, mannose 0 g/l, sucrose 0 g/l",47
same,percentage of live explants,"explants; MOG 10 g/l, mannose 0 g/l, sucrose 10 g/l",100
same,percentage of live explants,"explants; MOG 10 g/l, mannose 5 g/l, sucrose 0 g/l",82
same,percentage of live explants,"explants; MOG 10 g/l, mannose 5 g/l, sucrose 10 g/l",100
same,percentage of live explants,"explants; MOG 10 g/l, mannose 10 g/l, sucrose 0 g/l",9
same,percentage of live explants,"explants; MOG 10 g/l, mannose 10 g/l, sucrose 10 g/l",41
same,percentage of live explants,"explants; MOG 20 g/l, mannose 0 g/l, sucrose 0 g/l",50
same,percentage of live explants,"explants; MOG 20 g/l, mannose 0 g/l, sucrose 10 g/l",100
same,percentage of live explants,"explants; MOG 20 g/l, mannose 5 g/l, sucrose 0 g/l",98
same,percentage of live explants,"explants; MOG 20 g/l, mannose 5 g/l, sucrose 10 g/l",100
same,percentage of live explants,"explants; MOG 20 g/l, mannose 10 g/l, sucrose 0 g/l",88
same,percentage of live explants,"explants; MOG 20 g/l, mannose 10 g/l, sucrose 10 g/l",100
same,regenerated shoots as a percentage of shoots on substrates without mannose and methyl-3-0-glucose,"Wild type explants; MOG 2.5, mannose 0 g/l, sucrose 0 g/l, 11 weeks",0
same,regenerated shoots as a percentage of shoots on substrates without mannose and methyl-3-0-glucose,Wild type explants; [15],53
same,regenerated shoots as a percentage of shoots on substrates without mannose and methyl-3-0-glucose,Wild type explants; [16],0
same,regenerated shoots as a percentage of shoots on substrates without mannose and methyl-3-0-glucose,Wild type explants; [17],6
same,regenerated shoots as a percentage of shoots on substrates without mannose and methyl-3-0-glucose,Wild type explants; [18],0
same,regenerated shoots as a percentage of shoots on substrates without mannose and methyl-3-0-glucose,Wild type explants; [19],0
same,regenerated shoots as a percentage of shoots on substrates without mannose and methyl-3-0-glucose,Wild type explants; [20],0
same,regenerated shoots as a percentage of shoots on substrates without mannose and methyl-3-0-glucose,Wild type explants; [21],0
same,regenerated shoots as a percentage of shoots on substrates without mannose and methyl-3-0-glucose,Wild type explants; [22],0
same,regenerated shoots as a percentage of shoots on substrates without mannose and methyl-3-0-glucose,Wild type explants; [23],17
same,regenerated shoots as a percentage of shoots on substrates without mannose and methyl-3-0-glucose,Wild type explants; [24],0
same,regenerated shoots as a percentage of shoots on substrates without mannose and methyl-3-0-glucose,Wild type explants; [25],41
same,regenerated shoots as a percentage of shoots on substrates without mannose and methyl-3-0-glucose,Wild type explants; [26],0
same,regenerated shoots as a percentage of shoots on substrates without mannose and methyl-3-0-glucose,Wild type explants; [27],0
same,regenerated shoots as a percentage of shoots on substrates without mannose and methyl-3-0-glucose,Wild type explants; [28],0
same,regenerated shoots as a percentage of shoots on substrates without mannose and methyl-3-0-glucose,Wild type explants; [29],0
same,GUS+ shoots/explant,[6]; MOG 2.5 g/l,0.2
same,GUS+ shoots/sel. shoots (%),[6]; MOG 2.5 g/l,57%
same,GUS+ shoots/explant,[6]; MOG 5.0 g/l,1.0
same,GUS+ shoots/sel. shoots (%),[6]; MOG 5.0 g/l,81%
same,GUS+ shoots/explant,[6]; MOG 10 g/l,0.5
same,GUS+ shoots/sel. shoots (%),[6]; MOG 10 g/l,89%
same,GUS+ shoots/explant,[6]; MOG 15 g/l,0.6
same,GUS+ shoots/sel. shoots (%),[6]; MOG 15 g/l,53%
O=C(O)[C@H]1OC(O)[C@H](O)[C@@H](O)[C@@H]1O (some centres unmarked) [Glucuronic acid],"Shoot formation, GUS-",[2],"- (""-"" means no shoot formation at concentrations below 250 μM)"
same,"Shoot formation, GUS+",[4],"- (""-"" means no shoot formation at concentrations below 250 μM)"
O=C(CO)[C@@H](O)[C@H](O)CO [D-xylulose],# of Shoots per explant,potato stem segments,2.2
same,activity at 5000 µg/mL,potato stem segments; read-out: Size % of control,74%
same,activity at 5000 µg/mL,potato stem segments; read-out: explants alive % of control,58%
